Reference: US7192949B2, “Substituted bicyclic pyrimidinones as a mitotic kinesin KSP inhibitors” (Merck & Co., Inc., priority 2001, dated 2007)

Biological target: T1, human KSP motor domain (KSP(367H)) (Homo sapiens, UniProt P52732)
T1 construct: were used to amplify the motor domain and the neck linker region; made in house; host or cells: E. coli BL21 (DE3), pRSETa vector
T1 sequence (P52732 18-359 limits assumed): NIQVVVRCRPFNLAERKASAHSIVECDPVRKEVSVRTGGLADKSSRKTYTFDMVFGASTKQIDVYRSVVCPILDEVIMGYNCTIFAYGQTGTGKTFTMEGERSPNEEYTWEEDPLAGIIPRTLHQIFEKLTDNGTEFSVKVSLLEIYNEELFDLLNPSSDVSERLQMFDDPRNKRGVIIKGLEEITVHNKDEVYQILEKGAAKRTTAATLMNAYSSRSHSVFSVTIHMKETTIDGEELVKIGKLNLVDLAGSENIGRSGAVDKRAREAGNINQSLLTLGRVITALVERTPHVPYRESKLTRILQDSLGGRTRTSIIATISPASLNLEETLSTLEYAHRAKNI
Assay: Kinesin ATPase In Vitro Assay
Type: biochemical
Conditions: kinesin motor domain with microtubules, 1 mM ATP, 23° C.; free phosphate by quinaldine red/ammonium molybdate, absorbance 540 nm
Excerpt: I. Kinesin ATPase In Vitro Assay
Cloning and Expression of Human Poly-Histidine Tagged KSP Motor Domain (KSP(367H))
Plasmids for the expression of the human KSP motor domain construct were cloned by PCR using a pBluescript full length human KSP construct (Blangy et al., Cell, vol.83, pp 1159–1169, 1995) as a template. The N-terminal primer 5′-[…] (SEQ.ID.NO.: 1) and the C-terminal primer 5′-[…] […] (SEQ.ID.NO.: 2) were used to amplify the motor domain and the neck linker region. The PCR products were digested with AseI and XhoI, ligated into the NdeI/XhoI digestion product of pRSETa (Invitrogen) and transformed into E. coli BL21 (DE3).
Cells were grown at 37° C. to an OD600 of 0.5. […]
The kinesin motor domain is incubated with microtubules, 1 mM ATP (1:1 MgCl2: Na-ATP), and compound at 23° C. in buffer containing 80 mM K-HEPES (pH 7.0), 1 mM EGTA, 1 mM DTT, 1 mM MgCl2, and 50 mM KCl. […] Free phosphate from the ATP hydrolysis reaction is measured via a quinaldine red/ammonium molybdate assay by adding 150 μl of quench C buffer containing a 2:1 ratio of quench A:quench B. Quench A contains 0.1 mg/ml quinaldine red and 0.14% polyvinyl alcohol; quench B contains 12.3 mM ammonium molybdate tetrahydrate in 1.15 M sulfuric acid. The reaction is incubated for 10 minutes at 23° C., and the absorbance of the phospho-molybdate complex is measured at 540 nm.

IC50: ≤ 50 µM
Structure (SMILES): CCC(c1nc2c(c(=O)n1Cc1ccccc1)CCC2)N(CCN(C)C)C(=O)c1ccc(Br)cc1 (stereo not shown) [1-5, N-[1-(3-benzyl-4-oxo-4,5,6,7-tetrahydro-3H-cyclopenta[d]pyriinidin-2-yl)propyl]-4-bromo-N-[2-(dimethylamino)ethyl]benzamide]
